Experimental data: US20140309295A1, “ANTIEPILEPTIC, HYPOCHOLESTEROLEMIC AND NEUROPROTECTIVE COMPOUND” (NEURON BIOPHARMA, S.A., priority 2009, published 2014)

Experiments:
ApoB100 mice = assay: Hypocholesterolemic effect, oral three months, endogenous hyperlipidemia model; format: in vivo; details: 50 mg/kg oral, 3 months
Experimental: All the animals included for the experimental process were 6-month old female mice. The experiments were conducted strictly following the Guidance on the Operation of Animals (Scientific Procedures, Act. 1986). The animals had their respective quarantine period and were treated with maximum precaution to minimize possible contaminations for inoculations and handling.
After a conditioning to the diet, 50 mg/kg of NST0021 or NST0037 were orally administered to the mice for 3 months, three times a week, using in both cases 0.25% carboxy methylcellulose in physiological saline as a vehicle. The control group received this same vehicle. Before starting the treatments and at one, two and three months of starting them, retro-orbital blood extractions after fasting for 16 hours were carried out. The plasma was obtained from said blood, in which the total cholesterol (TC), free cholesterol (FC), cholesterol (EC), HDL-c, LDL-c, VLDL-c levels were evaluated by enzymatic and spectrophotometric techniques.

[1] = system: human neuroblastoma SK-N-MC cells; assay: Protection against neuronal death induced by inhibition of succinate dehydrogenase (3-NP), WST-1; format: cell-based; details: 40 μM NST0037; 30 μM 3-NP
Experimental: The assay was performed on human neuroblastoma SK-N-MC cells in culture from the American Type Culture Collection (ATCC), in all cases strict rules of sterility were followed and the manipulation was performed in class II biological safety cabinets following European standard EN 12469. The cells were maintained in the following culture medium: Minimum Essential Medium Eagle (MEM) supplemented with 1 mM sodium pyruvate, 2 mM L-glutamine, 0.1 mM non-essential amino acids, 0.05 mg/ml gentamicin and 10% fetal bovine serum.
The inhibition caused by compound NST0037 of cell death caused by treatment with 3-Nitropropionic (3-NP) acid was analyzed. 3-NP is an irreversible inhibitor of the succinate dehydrogenase enzyme which in animal models causes oxidative stress and apoptotic cell death in the striatum, which mimics neurochemical and anatomical changes associated with Huntington's disease (HD). […]
The cells were incubated (at 37° C. and 5% CO2) with these treatments for 22 hours, after which time the WST-1 reagent (Roche) was added. […] The formazan which is formed can be detected colorimetrically since it has an absorbance of 440 nm. The reading was taken in a plate reader at 440 nm 2 hours after adding the reagent.

[2] = PAMPA, 18 h, 100 μM, pH 7.4
[3] = system: Aβ(1-40) and Aβ(1-42) secreted by SK-N-MC cells overexpressing APP; assay: Secretion of β-amyloid peptide in SK-N-MC cells overexpressing APP (ELISA); format: cell-based, human
Experimental: The assay was performed on human neuroblastoma SK-N-MC cells in culture from the American Type Culture Collection (ATCC), stably transfected with a construct carried by the APP gene (beta-amyloid precursor protein, Gene ID: 351) in isoform 695, which is the most frequent variant expressed in neurons, whereby overexpression of the APP protein is achieved. In all cases strict rules of sterility were followed and the manipulation was performed in class II biological safety cabinets following European standard EN 12469. […]
The cells were incubated (at 37° C. and 5% CO2) with these treatments for 48 hours, 500 μl of conditioned medium then being collected to perform the measurements. […] The two most frequent Aβ species, 1-40 and 1-42, were measured. […] The amount of Aβ(1-40) and Aβ(1-42) of the conditioned medium was analyzed for each treatment by means of ELISA (Enzyme-linked immunosorbent assay), using the “beta amyloid 40 ELISA” and “beta amyloid 42 ELISA” kit (Biosource), following the recommendations of the manufacturer. The results were quantified by using an increasing concentration curve with synthetic peptides. […]

CCC(CC)C(=O)O[C@H]1C[C@@H](C)C=C2C=C[C@H](C)[C@H](CC[C@@H]3C[C@@H](O)CC(=O)O3)[C@H]21 [NST0037, (1S,2S,6R,8S,8aR)-1,2,6,7,8,8a-hexahydro-3,7-dimethyl-8-[2-[(2R,4R)-tetrahydro-4-hydroxy-6-oxo-2H-pyran-2-yl]ethyl]-1-naphthalenyl-2-ethyl-butyrate]
FC and EC levels (ApoB100 mice): significant reduction of both FC and EC
HDL-c levels (ApoB100 mice): increase the HDL-c levels
LDL-c levels vs simvastatin (ApoB100 mice): reduced to a greater extent
cholesterol fractions (ApoB100 mice; three times a week, female apoB100 mice): reduced the different cholesterol fractions
protection against death caused by 3-NP [1]: 41%
% BBB Passage [2]: 22.5 ± 5.5%
secreted Aβ(1-40) with respect to control cells ([3]; 10, 40 and 100 μM of NST0037, 48 hours): a reduction is obtained
secreted Aβ(1-42) with respect to control cells ([3]; 10 and 40 μM of NST0037, 48 hours): a reduction is obtained
